Like-named read-outs stand apart in the source and are kept apart here.
How the values were obtained:
[1] = biological target: T1, HIV-1 protease (Human immunodeficiency virus type 1 group M subtype B, UniProt P04585); assay: biochemical; settings: for inhibition at 0.37 µM: read-out: HIV-1 Protease % Inhib, dose 0.370 uM; for inhibition at 1.1 µM: read-out: HIV-1 Protease % Inhib, dose 1.100 uM; for inhibition at 3.3 µM: read-out: HIV-1 Protease % Inhib, dose 3.300 uM; for inhibition at 10 µM: read-out: HIV-1 Protease % Inhib, dose 10.000 uM; for inhibition at 30 µM: read-out: HIV-1 Protease % Inhib, dose 30.000 uM; for inhibition at 0.41 µM: read-out: HIV-1 Protease % Inhib, dose 0.410 uM; for inhibition at 1.23 µM: read-out: HIV-1 Protease % Inhib, dose 1.230 uM; for inhibition at 3.7 µM: read-out: HIV-1 Protease % Inhib, dose 3.700 uM; for inhibition at 11 µM: read-out: HIV-1 Protease % Inhib, dose 11.000 uM; for inhibition at 33 µM: read-out: HIV-1 Protease % Inhib, dose 33.000 uM; for inhibition at 100 µM: read-out: HIV-1 Protease % Inhib, dose 100.000 uM; for inhibition at 0.123 µM: read-out: HIV-1 Protease % Inhib, dose 0.123 uM
Method in brief: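 Biotinylated, FITC-labeled peptide substrate (20 μl of 0.2 μM) incubated with HIV-1 protease (10 μl of 0.1 μM) and compound in 0.1 M sodium acetate pH 5.5, 1.0 M NaCl, 0.05% NP-40, 1 h, room temperature, dark. Streptavidin beads then capture uncleaved substrate; filtered labeled product read by fluorescence, giving percent inhibition.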

[2] = biological target: T1, HIV-1 protease; assay: biochemical
Method in brief: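 Ki from two-fold serial inhibitor dilutions (24–48 concentrations) with 40 nM HIV-1 protease stock and 200 μM substrate stock, 90 min at room temperature; stopped with avidin beads. Reference inhibitor run in parallel; Ki by nonlinear least-squares fit.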

SMILES	inhibition at 0.37 µM [1]	inhibition at 1.1 µM [1]	inhibition at 3.3 µM [1]	inhibition at 10 µM [1]	inhibition at 30 µM [1]	Ki ([2]; read-out: HIV-1 FITC KI)	inhibition at 0.41 µM [1]	inhibition at 1.23 µM [1]	inhibition at 3.7 µM [1]	inhibition at 11 µM [1]	inhibition at 33 µM [1]	inhibition at 100 µM [1]	Ki ([2]; HIV-1 FITC KI)	inhibition at 0.123 µM [1]
Nc1cccc(C(c2c(O)c3c(oc2=O)CCCCCC3)C2CC2)c1 (stereo not shown) [Example 164, 3-[(3-Aminophenyl)cyclopropylmethyl]-5,6,7,8,9,10-hexahydro-4-hydroxy-2H-cycloocta[b]pyran-2-one]	14.6%	46.2%	87.3%	99.7%	102%	78 nM								
CC(C)(C)OC(=O)NCCC(=O)Nc1cccc(C(c2c(O)c3ccccc3oc2=O)C2CC2)c1 (stereo not shown) [Example 165, Carbamic acid, [3-[[3-[cyclopropyl(4-hydroxy-2-oxo-2H-1-benzopyran-3-yl)methyl]phenyl]amino]-3-oxopropyl]-, 1,1-dimethylethyl ester]							61.7%	86.7%	98.4%	106%	111%	114%	86 nM	
COc1ccc2c(O)c(C(c3cccc(NC(=O)CCNC(=O)OC(C)(C)C)c3)C3CC3)c(=O)oc2c1 (stereo not shown) [Example 167, Carbamic acid, [3-[[3-[cyclopropyl(4-hydroxy-7-methoxy-2-oxo-2H-1-benzopyran-3-yl)methyl]phenyl]amino]-3-oxopropyl]-, 1,1-dimethylethyl ester]							83.2%	99.5%	113%	114%	114%	116%	28 nM	
O=C(CCn1ccc2ccccc21)Nc1cccc(C(c2c(O)c3ccccc3oc2=O)C2CC2)c1 (stereo not drawn) [Example 168, Coumarin, 4-hydroxy-3-(α-(3-((3-(1H-indol-1-yl)-1-oxopropyl)amino)phenyl)cyclopropylmethyl)]	12.4%	46.4%	74.9%	94.7%	107%								135 nM	
CCC(=O)C1CCCCCc2c1oc(=O)c(C(c1ccccc1)C1CC1)c2O (stereo not shown) [Example 174, 3-(Cyclopropylphenylmethyl)-5,6,7,8,9,10-hexahydro-4-hydroxy-10-(1-oxopropyl)-2H-cycloocta[b]pyran-2-one]	35.8%	75%	95.9%	104%	97.8%	35 nM								11.4%
O=c1oc2c(c(O)c1C(c1ccccc1)C1CC1)CCCCCC2C(O)C1CC1 (stereo not shown) [Example 176, 10-(Cyclopropylhydroxymethyl)-3-(cyclopropylphenylmethyl)-5,6,7,8,9, 10-hexahydro-4-hydroxy-2H-cycloocta[b]pyran-2-one]	27.3%	82.6%	104%	109%	118%	37 nM								
COCC1CCCCCc2c1oc(=O)c(C(c1ccccc1)C1CC1)c2O (stereo not shown) [Example 177, 3-(Cyclopropylphenylmethyl)-5,6,7,8,9,10-hexahydro4-hydroxy-10-(methoxymethyl)-2H-cycloocta[b]pyran-2-one]	16.9%	53.9%	88.9%	104%	104%	55 nM								
COCCC1CCCCCc2c1oc(=O)c(C(c1ccccc1)C1CC1)c2O (stereo not shown) [Example 178, 3-(Cyclopropylphenylmethyl)-5,6,7,8,9,10-hexahydro-4-hydroxy-10-(2-methoxyethyl)-2H-cycloocta[b]pyran-2-one]	45.5%	86.4%	98.8%	105%	103%	27 nM								16.2%

— patent US5686486A, “4-hydroxy-benzopyran-2-ones and 4-hydroxy-cycloalkyl[b]pyran-2-ones useful to treat retroviral infections” (priority 1995, dated 1997)
